Source: PubChem BioAssay AID1963420 (Molecular Pharmacology Branch, DTP, NCI, 2024)
Several values for one entry are separate records, joined by “and”; a condition that tells them apart may be missing. Identical values can stand only once.

Test system: 494315-158-R-J1-PDC complex spheroid growth, percent test/control
Test: Anticancer human tumor 494315-158-R-J1-PDC patient-derived soft tissue sarcoma cell line growth inhibition [Asc]
Conditions: for viability, T/C: stronger effect = lower value
Procedure, shortened: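 Concentration series start at each agent's clinical Cmax, or at 10 microM when none is established, and drop in half-log steps; agents are applied alone or together to complex spheroids built with HUVEC and hMSC.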

[1] = curve of first compound, second compound 0.01 µM
[2] = curve of first compound, second compound 0.0316 µM
[3] = curve of first compound, second compound 0.1 µM
[4] = curve of first compound, second compound 0.316 µM
[5] = curve of first compound, second compound 1 µM
[6] = second compound 0.01 µM, first compound 0.00316 µM
[7] = second compound 0.01 µM, first compound 0.01 µM
[8] = second compound 0.01 µM, first compound 0.0316 µM
[9] = second compound 0.01 µM, first compound 0.1 µM
[10] = second compound 0.0316 µM, first compound 0.00316 µM
[11] = second compound 0.0316 µM, first compound 0.01 µM
[12] = second compound 0.0316 µM, first compound 0.0316 µM
[13] = second compound 0.0316 µM, first compound 0.1 µM
[14] = second compound 0.1 µM, first compound 0.00316 µM
[15] = second compound 0.1 µM, first compound 0.01 µM
[16] = second compound 0.1 µM, first compound 0.0316 µM
[17] = second compound 0.1 µM, first compound 0.1 µM
[18] = second compound 0.316 µM, first compound 0.00316 µM
[19] = second compound 0.316 µM, first compound 0.01 µM
[20] = second compound 0.316 µM, first compound 0.0316 µM
[21] = second compound 0.316 µM, first compound 0.1 µM
[22] = second compound 1 µM, first compound 0.00316 µM
[23] = second compound 1 µM, first compound 0.01 µM
[24] = second compound 1 µM, first compound 0.0316 µM
[25] = second compound 1 µM, first compound 0.1 µM
[26] = compound alone, run of 09/27/2022
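Further: compound exposure lasted seven days after spheroids formed for three days.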

**Q.** `CCN1CCN(Cc2ccc(Nc3ncc(F)c(-c4cc(F)c5nc(C)n(C(C)C)c5c4)n3)nc2)CC1` + CNC(C)C(=O)NC1CN(S(=O)(=O)c2cccc(S(=O)(=O)N3CCC4CCC(C(=O)NC(c5ccccc5)c5ccccc5)N4C(=O)C(NC(=O)C(C)NC)C3)c2)CCC2CCC(C(=O)NC(c3ccccc3)c3ccccc3)N2C1=O was tested. Which IC50 [1] did it give?
**A.** > 1000 nM

**Q.** What about the IC50 [2] of the same compound?
**A.** > 1000 nM

**Q.** What about the IC50 [3] of the same compound?
**A.** > 1000 nM

**Q.** What about the IC50 [4] of the same compound?
**A.** < 3.16 nM

**Q.** What about the IC50 [5] of the same compound?
**A.** < 3.16 nM

**Q.** And the viability, T/C [6]?
**A.** 77.8%

**Q.** What about the viability, T/C [7] of the same compound?
**A.** 81.6%

**Q.** What about the viability, T/C [8] of the same compound?
**A.** 67%

**Q.** What about the viability, T/C [9] of the same compound?
**A.** 64.4%

**Q.** And the viability, T/C (second compound 0.01 µM, first compound 0.316 µM)?
**A.** 67.5%

**Q.** What about the viability, T/C (second compound 0.01 µM, first compound 1 µM) of the same compound?
**A.** 63.8%

**Q.** And the viability, T/C [10]?
**A.** 56.8%

**Q.** And the viability, T/C [11]?
**A.** 63.9%

**Q.** And the viability, T/C [12]?
**A.** 68.7%

**Q.** And the viability, T/C [13]?
**A.** 52.2%

**Q.** What about the viability, T/C (second compound 0.0316 µM, first compound 0.316 µM) of the same compound?
**A.** 57.2%

**Q.** What about the viability, T/C (second compound 0.0316 µM, first compound 1 µM) of the same compound?
**A.** 53.4%

**Q.** And the viability, T/C [14]?
**A.** 55.6%

**Q.** And the viability, T/C [15]?
**A.** 57.4%

**Q.** What about the viability, T/C [16] of the same compound?
**A.** 48.9%

**Q.** What about the viability, T/C [17] of the same compound?
**A.** 58.4%

**Q.** What about the viability, T/C (second compound 0.1 µM, first compound 0.316 µM) of the same compound?
**A.** 57.4%

**Q.** And the viability, T/C (second compound 0.1 µM, first compound 1 µM)?
**A.** 48.9%

**Q.** What about the viability, T/C [18] of the same compound?
**A.** 51.5%

**Q.** And the viability, T/C [19]?
**A.** 46.4%

**Q.** And the viability, T/C [20]?
**A.** 50.2%

**Q.** And the viability, T/C [21]?
**A.** 43.4%

**Q.** And the viability, T/C (second compound 0.316 µM, first compound 0.316 µM)?
**A.** 51.3%

**Q.** And the viability, T/C (second compound 0.316 µM, first compound 1 µM)?
**A.** 52.5%

**Q.** And the viability, T/C [22]?
**A.** 36.3%

**Q.** And the viability, T/C [23]?
**A.** 39.7%

**Q.** And the viability, T/C [24]?
**A.** 44.4%

**Q.** And the viability, T/C [25]?
**A.** 41.8%

**Q.** What about the viability, T/C (second compound 1 µM, first compound 0.316 µM) of the same compound?
**A.** 45.3%

**Q.** And the viability, T/C (second compound 1 µM, first compound 1 µM)?
**A.** 48.5%

**Q.** What does the source list for `NC1CCC(NC2CC2c2ccccc2)CC1` (stereo unspecified) + CNC(C)C(=O)NC1CN(S(=O)(=O)c2cccc(S(=O)(=O)N3CCC4CCC(C(=O)NC(c5ccccc5)c5ccccc5)N4C(=O)C(NC(=O)C(C)NC)C3)c2)CCC2CCC(C(=O)NC(c3ccccc3)c3ccccc3)N2C1=O?
**A.** IC50 [1]: > 100 nM; IC50 [2]: > 100 nM; IC50 [3]: > 100 nM; IC50 [4]: < 0.316 nM; IC50 [5]: < 0.316 nM; viability, T/C (second compound 0.01 µM, first compound 0.000316 µM): 72.2%; viability, T/C (second compound 0.01 µM, first compound 0.001 µM): 70.7%; viability, T/C [6]: 71.7%; viability, T/C [7]: 77.2%; viability, T/C [8]: 77.4%; viability, T/C [9]: 66.1%; viability, T/C (second compound 0.0316 µM, first compound 0.000316 µM): 65.7%; viability, T/C (second compound 0.0316 µM, first compound 0.001 µM): 67.8%; viability, T/C [10]: 55.7%; viability, T/C [11]: 70.6%; viability, T/C [12]: 62.3%; viability, T/C [13]: 57.3%; viability, T/C (second compound 0.1 µM, first compound 0.000316 µM): 53.5%; viability, T/C (second compound 0.1 µM, first compound 0.001 µM): 60.9%; viability, T/C [14]: 47.3%; viability, T/C [15]: 55.5%; viability, T/C [16]: 52.4%; viability, T/C [17]: 64.5%; viability, T/C (second compound 0.316 µM, first compound 0.000316 µM): 45.6%; viability, T/C (second compound 0.316 µM, first compound 0.001 µM): 48.3%; viability, T/C [18]: 42.1%; viability, T/C [19]: 43.9%; viability, T/C [20]: 43.7%; viability, T/C [21]: 44.7%; viability, T/C (second compound 1 µM, first compound 0.000316 µM): 38.8%; viability, T/C (second compound 1 µM, first compound 0.001 µM): 41.9%; viability, T/C [22]: 42.9%; viability, T/C [23]: 40.2%; viability, T/C [24]: 35.7%; viability, T/C [25]: 46.9%

**Q.** `CCN1CCN(Cc2ccc(Nc3ncc(F)c(-c4cc(F)c5nc(C)n(C(C)C)c5c4)n3)nc2)CC1` was tested. Which viability, T/C (compound 0.00316 µM) did it give?
**A.** 86.4% and 118% and 98.1%

**Q.** What about the viability, T/C (compound 0.01 µM) of the same compound?
**A.** 95.3% and 99.7% and 103%

**Q.** And the viability, T/C (compound 0.0316 µM)?
**A.** 97.3% and 110% and 101%

**Q.** And the viability, T/C (compound 0.1 µM)?
**A.** 94.9% and 96.2% and 93.2%

**Q.** What about the viability, T/C (compound 0.316 µM) of the same compound?
**A.** 86.4% and 92.8% and 116%

**Q.** What about the viability, T/C (compound 1 µM) of the same compound?
**A.** 87% and 91.4% and 104%

**Q.** What about the IC50 (curve of compound) of the same compound?
**A.** > 1000 nM

**Q.** `CCN1C(C(=O)NC23CCC(C(=O)O)(CC2)CC3)C(c2cccc(Cl)c2F)C2(C(=O)Nc3cc(Cl)ccc32)C12CCCCC2` (stereo unspecified) was tested. Which viability, T/C (compound 0.00949 µM) did it give?
**A.** 86.2% and 96.4%

**Q.** And the IC50 [26]?
**A.** > 3000 nM

**Q.** What about the IC50 (curve of compound) of the same compound?
**A.** > 3000 nM

**Q.** With `Cc1c(S(C)(=O)=O)c(-c2cc(F)cc(N3CCN(c4ccc(NS(=O)(=O)c5ccc(NC(CCN6CCC(C(=O)OCCCP(=O)(O)O)CC6)CSc6ccccc6)c(S(=O)(=O)C(F)(F)F)c5)cc4)CC3)c2)c(-c2ccc(Cl)cc2)n1C(C)C` (stereo unspecified) as the compound, how does the viability, T/C (compound 0.1 µM) read?
**A.** 77.8% [middle of 14 runs]

**Q.** And the viability, T/C (compound 0.316 µM)?
**A.** 71.6% [middle of 14 runs]

**Q.** And the viability, T/C (compound 1 µM)?
**A.** 65% [middle of 14 runs]

**Q.** And the viability, T/C (compound 3.16 µM)?
**A.** 52.8% [middle of 14 runs]

**Q.** And the viability, T/C (compound 10 µM)?
**A.** 73.2% [middle of 14 runs]

**Q.** What about the IC50 [26] of the same compound?
**A.** > 10000 nM
